Literature values, collected in PubChem BioAssay AID1259409 (Chemical Carcinogenesis Research Information System (CCRIS), 2018).

System: rodent chemically induced tumor inhibition, incidence and multiplicity
Assay: CCRIS tumor inhibitor studies
Settings: Route [Inhibitor]: ORAL, Promoter: NONE USED

For CC1=C(/C=C/C(C)=C/C=C/C(C)=C\C(=O)O)C(C)(C)CCC1, the “tumour outcome (control, treated, inhibition, significance)” value (Carcinogen: N-METHYL-N-NITROSOUREA, 684-93-5, Dose [Inhibitor]: 128 MG/KG DIET DAILY FOR 55 WK STARTING 1 WK AFTER LAST CARCINOGEN EXPOSURE (STUDY DURATION: 65 WK), Species: HAMSTER, Strain/Sex: SYRIAN/MALE, Target Tissue: Type of Lesion: TRACHEA: TUMOR, Dose [Carcinogen]: 1% FOR 7 SECONDS 2/WK FOR 9 WK) is given as 30/37 (81%), 26/34 (76%), 6%, not significant, the “tumour outcome (control, treated, inhibition, significance)” value (Carcinogen: N-METHYL-N-NITROSOUREA, 684-93-5, Dose [Inhibitor]: 172 MG/KG DIET DAILY FOR 55 WK STARTING 1 WK AFTER LAST CARCINOGEN EXPOSURE (STUDY DURATION: 67.5 WK), Species: HAMSTER, Strain/Sex: SYRIAN/MALE, Target Tissue: Type of Lesion: TRACHEA: TUMORS, Dose [Carcinogen]: 1% FOR 7 SECONDS 2/WK FOR 11.5 WK) is given as 24/40 (60%), 24/40 (60%), 0%, not significant and the “tumour outcome (control, treated, inhibition, significance)” value (Carcinogen: N-METHYL-N-NITROSOUREA, 684-93-5, Dose [Inhibitor]: 240 MG/KG OF DIET DAILY STARTING 5 D AFTER FINAL CARCINOGEN TREATMENT AND CONTINUING THROUGH END OF STUDY (STUDY DURATIO, Species: RAT, Strain/Sex: F344/MALE, Target Tissue: Type of Lesion: COLON: INVASIVE TUBULOPAPILLARY ADENOCARCINOMA, Dose [Carcinogen]: 0.5 MG 2/WK FOR 8 WK) is given as 33%, 27%, 18%, not significant. The “tumour outcome (control, treated, inhibition, significance)” value (Carcinogen: N-METHYL-N-NITROSOUREA, 684-93-5, Dose [Inhibitor]: 240 MG/KG OF DIET DAILY STARTING 5 D AFTER FINAL CARCINOGEN TREATMENT AND CONTINUING THROUGH END OF STUDY (STUDY DURATIO, Species: RAT, Strain/Sex: F344/MALE, Target Tissue: Type of Lesion: COLON: INVASIVE TUBULOPAPILLARY ADENOCARCINOMA, Dose [Carcinogen]: 1 MG 2/WK FOR 8 WK) was 80%, 90%, -13%, not significant, the “tumour outcome (control, treated, inhibition, significance)” value (Carcinogen: N-METHYL-N-NITROSOUREA, 684-93-5, Dose [Inhibitor]: 240 MG/KG OF DIET DAILY STARTING 5 D AFTER FINAL CARCINOGEN TREATMENT AND CONTINUING THROUGH END OF STUDY (STUDY DURATIO, Species: RAT, Strain/Sex: F344/MALE, Target Tissue: Type of Lesion: COLON: INVASIVE TUBULOPAPILLARY ADENOCARCINOMA, Dose [Carcinogen]: 2 MG 2/WK FOR 8 WK) was 95%, 100%, -5%, not significant and the “tumour outcome (control, treated, inhibition, significance)” value (Carcinogen: N-NITROBIS(2-OXOPROPYL)AMINE, 60559-38-4, Dose [Inhibitor]: 0.4 MMOL/KG/D IN DIET STARTING 1 WK AFTER CARCINOGEN TREATMENT AND CONTINUING THROUGH THE END OF THE STUDY (STUDY DURATI, Species: HAMSTER, Strain/Sex: SYRIAN/FEMALE, Target Tissue: Type of Lesion: LIVER: BENIGN TUMOR, Dose [Carcinogen]: 40 MG/KG BW ONCE) was 4/20 (20%), 10/15 (67%), -235%, p<0.05. The “tumour outcome (control, treated, inhibition, significance)” value (Carcinogen: N-NITROBIS(2-OXOPROPYL)AMINE, 60559-38-4, Dose [Inhibitor]: 0.4 MMOL/KG/D IN DIET STARTING 1 WK AFTER CARCINOGEN TREATMENT AND CONTINUING THROUGH THE END OF THE STUDY (STUDY DURATI, Species: HAMSTER, Strain/Sex: SYRIAN/FEMALE, Target Tissue: Type of Lesion: PANCREAS: DUCTULAR ADENOMA, Dose [Carcinogen]: 40 MG/KG BW ONCE) was 12/20 (60%), 7/14 (50%), 17%, not significant, the “tumour outcome (control, treated, inhibition, significance)” value (Carcinogen: N-NITROBIS(2-OXOPROPYL)AMINE, 60559-38-4, Dose [Inhibitor]: 0.4 MMOL/KG/D IN DIET STARTING 1 WK AFTER CARCINOGEN TREATMENT AND CONTINUING THROUGH THE END OF THE STUDY (STUDY DURATI, Species: HAMSTER, Strain/Sex: SYRIAN/FEMALE, Target Tissue: Type of Lesion: PANCREAS: DUCTULAR CARCINOMA, Dose [Carcinogen]: 40 MG/KG BW ONCE) was 6/20 (30%), 9/14 (64%), -113%, not significant and the “tumour outcome (control, treated, inhibition, significance)” value (Carcinogen: N-NITROBIS(2-OXOPROPYL)AMINE, 60559-38-4, Dose [Inhibitor]: 0.4 MMOL/KG/D IN DIET STARTING 1 WK AFTER CARCINOGEN TREATMENT AND CONTINUING THROUGH THE END OF THE STUDY (STUDY DURATI, Species: HAMSTER, Strain/Sex: SYRIAN/MALE, Target Tissue: Type of Lesion: PANCREAS: DUCTULAR CARCINOMA, Dose [Carcinogen]: 40 MG/KG BW ONCE) was 5/24 (21%), 9/24 (38%), -81%, not significant. For the same compound, the “tumour outcome (control, treated, inhibition, significance)” value (Carcinogen: N-NITROBIS(2-OXOPROPYL)AMINE, 60559-38-4, Dose [Inhibitor]: 0.4 OR 0.8 MMOL/KG DIET DAILY STARTING 1 WK AFTER CARCINOGEN TREATMENT AND CONTINUING THROUGH THE END OF THE STUDY (STUD, Species: HAMSTER, Strain/Sex: SYRIAN/FEMALE, Target Tissue: Type of Lesion: LIVER: BENIGN TUMOR, Dose [Carcinogen]: 40 MG/KG BW ONCE) was 4/20 (20%), 10/15 (67%), -235%, p<0.05 and the “tumour outcome (control, treated, inhibition, significance)” value (Carcinogen: N-NITROBIS(2-OXOPROPYL)AMINE, 60559-38-4, Dose [Inhibitor]: 0.4 OR 0.8 MMOL/KG DIET DAILY STARTING 1 WK AFTER CARCINOGEN TREATMENT AND CONTINUING THROUGH THE END OF THE STUDY (STUD, Species: HAMSTER, Strain/Sex: SYRIAN/FEMALE, Target Tissue: Type of Lesion: PANCREAS: DUCTULAR ADENOMA, Dose [Carcinogen]: 10 MG/KG BW ONCE) was 5/23 (22%), 9/23 (39%), -77%, not significant.
